Measured values published in paper PMC12736951, “Design, Synthesis, and Biological Evaluation of 6″-Modified Apramycin Derivatives to Overcome Aminoglycoside Resistance” (Pharmaceutics, 2025).
≈ marks a conversion by molar mass, not a printed value. Where two headings read alike, the source gives them in different places.

How the values were obtained:
[1] = tested on: E. coli JW5503 EF-G P610T; assay: MIC against aminoglycoside-resistant EF-G mutant; type: cell-based
Method: (§1) The determination of the MIC values was performed on five strains from the working collection of MSU. E. coli JW5503 [25], which lacked a kanamycin resistance cassette that had been removed as per the method outlined in [26], and a strain derived from this strain through in vitro selection with kanamycin. […] Strains containing AG-modifying enzymes were obtained through the transformation of E. coli JW5503 with plasmids that carried cassettes of resistance, namely pCRISPomyces-2–AAC(3)-IV (Addgene #61737), pdualrep2–APH(3′)-II [27] and pt67–ANT(3″). The MIC determination was performed as described for JW5503 in [19].

[2] = tested on: HEK293T human embryonic kidney cell line; assay: Cytotoxicity, MTT test; type: cell-based; conditions: HEK-293T, 72 h, 2-250 µg/mL, read-out: IC50, viability of HEK293T cells
Method: The MTT test was performed in order to evaluate the effect of the compounds on eukaryotic cells’ survivability. Compounds 5a,b, 8a,b, and apramycin, as the reference drug, were tested on HEK293T human embryonic kidney cell line (ATCC). Compounds 5a,b, 8a,b, and apramycin were prepared as water solutions with a 50 mg/mL concentration. The HEK293T cell line was cultivated in DMEM/F-12 medium (Paneco LLC, Moscow, Russia) containing 10% FBS, 50 µg/mL penicillin, and 50 µg/mL streptomycin (Thermo Fisher Scientific, USA) at 37 °C in 5% CO2. Triplicates on 96-well plates were used, and 2500 HEK293T cells were seeded in 140 µL of DMEM/F-12 medium in each well during day one. The next day, compounds in twofold successive dilutions were added to these plates (concentrations in wells ranged between 2 and 250 µg/mL for 5a, 5b, and 8a, 8b). Plates were incubated for 72 h at 37 °C in 5% CO2. Afterwards, 0.5 mg/mL of the MTT reagent (Paneco LLC, Moscow, Russia) was added to each well. After 2 h of incubation, the media with MTT was replaced with 140 µL of DMSO, and all plates were placed on a shaker for 10 min for formazan to dissolve. Finally, the absorbance at a 555 nm wavelength was measured on all plates via the plate reader Victor X5 (PerkinElmer, Waltham, MA, USA). The data were then normalized, and dose–response curves and IC50 were calculated by means of GraphPad Prism version 8.0.2. (GraphPad Software, Inc., San Diego, CA, USA).

E. coli MAR17-1350 = assay: MIC, MDR clinical isolate; type: cell-based; conditions: E. coli MAR17-1350, MDR clinical isolate (NDM-5)
Source text: (§2) The microbial strains used in this study were obtained from the collection of the Gause Institute of New Antibiotics. The control strains included in the analysis were S. aureus ATCC 29213, E. coli ATCC 25922, P. aeruginosa ATCC 27853, M. smegmatis ATCC 607. Clinical isolates E. coli MAR17-1350, K. pneumoniae APEX-5, K. pneumoniae MAR14-3395, and K. pneumoniae MAR18-1752 with multidrug resistance, including resistance to aminoglycosides were kindly provided by the Research Institute of Antimicrobial Chemotherapy (RIAC) of the Smolensk State Medical University, Smolensk. The microbial cultures were stored at −75 °C in trypticase soy broth (Becton, Dickinson, France) containing 10–15% glycerol. Storage was carried out in accordance with CLSI guidelines. Prior to experimentation, the bacterial strains were revived from cryopreservation by inoculating them onto trypticase soy agar (Becton, Dickinson, France) and incubating at (36 ± 1) °C for 16–24 h. Individual morphologically homogeneous colonies were then suspended in sterile physiological saline, and the turbidity of the suspension was adjusted to 0.5 McFarland units using a DEN-1 spectrophotometer (Biosan, Riga, Latvia), which corresponds to a concentration of 1.5 × 10^8 CFU/mL.
(§3) The samples were dissolved in sterile distilled water, depending on the physicochemical properties of the compounds under investigation, to a concentration of 10,000 µg/mL. Working solutions were then prepared by serial dilution, resulting in concentrations ranging from 64 µg/mL to 0.125 µg/mL.
(§4) Activity was evaluated by determining the minimum inhibitory concentration (MIC) values using the microdilution method in Mueller–Hinton Broth (Beckton and Dickinson, Le Pont-de-Claix, France), in accordance with the standard procedure for assessing the antimicrobial susceptibility of microorganisms.
(§5) The analysis was conducted in 96-well microtiter plates (Medpolymer, Saint Petersburg, Russia). The bacterial inoculum was introduced within 15 min of preparation. MIC values were determined after incubation for 15–18 h at (36 ± 1) °C. Microbial growth in the presence of the tested compounds was compared to the growth control (without exposure to the test samples). The MIC was defined as the lowest concentration at which visible microbial growth was inhibited.
(§6) To ensure the accuracy of the results, the control antibiotics kanamycin A, gentamycin, and tobramycin (Abcr GmbH, Karlsruhe, Germany) were included, along with standard reference strains: E. coli ATCC 25922. The MIC values for kanamycin A were determined as follows: E. coli ATCC 25922—1–4 µg/mL [22]. For gentamycin, the MIC values were E. coli ATCC 25922–0.25–1 µg/mL [23]. For tobramycin, the MIC values were E. coli ATCC 25922–0.25–1 µg/mL [23]. The MIC values of the reference strains were required to fall within the acceptable ranges specified in [24], provided that standard assay conditions were maintained.

K. pneumoniae MAR14-3395 = assay: MIC, MDR clinical isolate; type: cell-based; conditions: K. pneumoniae MAR14-3395, MDR clinical isolate (NDM-1 + OXA-244)
Source text: as §2, §3, §4, §5, §6

K. pneumoniae MAR18-1752 = assay: MIC, MDR clinical isolate; type: cell-based; conditions: K. pneumoniae MAR18-1752, MDR clinical isolate (NDM-1)
Source text: as §2, §3, §4, §5, §6

K. pneumoniae APEX-5 = assay: MIC, MDR clinical isolate; type: cell-based; conditions: K. pneumoniae APEX-5, MDR clinical isolate (NDM-16)
Source text: as §2, §3, §4, §5, §6

E. coli JW5503 kanS = assay: MIC against E. coli JW5503 parent strain; type: cell-based
Method: as §1

E. coli JW5503 SmR = assay: MIC against transformant carrying ANT(3″); type: cell-based
Method: as §1

S. aureus ATCC 29213 = assay: MIC, broth microdilution; type: cell-based; conditions: Staphylococcus aureus, ATCC29213, Table 1
Source text: as §2, §3, §4, §5, §6

P. aeruginosa ATCC 27853 = assay: MIC, broth microdilution; type: cell-based; conditions: Pseudomonas aeruginosa, ATCC27853, Table 1
Source text: as §2, §3, §4, §5, §6

[3] = tested on: E. coli JW5503 with pJC27 β-galactosidase codon 537 reporter; assay: Translation accuracy using β-galactosidase reporters; type: cell-based; conditions: 0.1 μL of 50 mg/mL, 37 °C, 18 h, codon 537 GAC/GGG reporters
Method: To evaluate translation accuracy in the presence of antibiotics, E. coli JW5503 (kanamycin resistance cassette removed as per) was transformed with pJC27 plasmids. […] The synthesis of active β-galactosidase depends on translation errors occurring (when codons GAC and GGG are read as GAA). Petri dishes (9 cm) containing 20 mL of solid LB agar (1.5%), supplemented with chloramphenicol (11.3 μg/mL) and X-Gal (80 μg/mL), were prepared. A secondary soft-agar layer comprising 3.5 mL of LB agar (0.6%) supplemented with 11.3 μg/mL chloramphenicol and 0.5 mL of liquid culture (A600~1.0) was added and allowed to solidify. Antibiotics were applied to the plates in 0.1 μL aliquots at a concentration of 50 mg/mL for tobramycin, streptomycin, kanamycin, and apramycin, and for 5a, 5b, 8a, and 8b. The plates were then incubated at 37 °C for 18 h. […] The results were documented using a Samsung Galaxy Tab A71 camera.

M. smegmatis ATCC 607 = assay: MIC, broth microdilution; type: cell-based, Mycobacterium smegmatis; conditions: Mycolicibacterium smegmatis, ATCC607, Table 1
Source text: as §2, §3, §4, §5, §6

E. coli JW5503 KanR = assay: MIC against transformant carrying APH(3′)-II; type: cell-based
Method: as §1

E. coli ATCC 25922 [4] = assay: MIC, broth microdilution; type: cell-based, Escherichia coli
Source text: as §2, §3, §4, §5, §6

E. coli JW5503 ApmR = assay: MIC against transformant carrying AAC(3)-IV; type: cell-based
Method: as §1

E. coli ATCC 25922 [5] = conditions: E. coli ATCC 25922, reference strain quality control; cited from earlier work
[6] = Escherichia coli, MAR171350, read-out: MIC
[7] = Klebsiella pneumoniae, MAR143395, read-out: MIC
[8] = Klebsiella pneumoniae, MAR181752, read-out: MIC
[9] = Klebsiella pneumoniae, APEX5, read-out: MIC

| Molecule | MIC ([1]; Escherichia coli) [µg/mL] | MIC (E. coli MAR17-1350; [6]) [µg/mL] | MIC (K. pneumoniae MAR14-3395; [7]) [µg/mL] | MIC (K. pneumoniae MAR18-1752; [8]) [µg/mL] | MIC (K. pneumoniae APEX-5; [9]) [µg/mL] | MIC (E. coli JW5503 kanS; Escherichia coli, JW5503KANS) [µg/mL] | MIC (E. coli JW5503 SmR; Escherichia coli, JW5503SMR) [µg/mL] | MIC (E. coli JW5503 KanR; Escherichia coli, JW5503KANR) [µg/mL] | MIC (E. coli JW5503 ApmR; Escherichia coli, JW5503APMR) [µg/mL] | MIC, control antibiotic range (E. coli ATCC 25922 [5]) [µg/mL] | also measured |
| --- | --- | --- | --- | --- | --- | --- | --- | --- | --- | --- | --- |
| CN[C@@H]1[C@@H](O[C@H]2O[C@H](CO)[C@@H](N)[C@H](O)[C@H]2O)OC2C[C@@H](N)[C@@H](O[C@H]3[C@H](O)[C@@H](O)[C@H](N)C[C@@H]3N)OC2[C@@H]1O (stereo partly drawn) [Apramycin (1), apramycin] | 64 (≈ 119 µM) | 4 (≈ 7.41 µM) | 1 | 1 (≈ 1.85 µM) | 1 (≈ 1.85 µM) | 8 (≈ 14.8 µM) | 8 (≈ 14.8 µM) | 4 (≈ 7.41 µM) | > 256 |  | IC50 [2]: > 250 µg/mL; MIC (S. aureus ATCC 29213): 1 µg/mL (≈ 1.85 µM); MIC (P. aeruginosa ATCC 27853): 2 µg/mL (≈ 3.71 µM); induction of translation errors (blue staining at edge of inhibition zone) [3]: blue staining; MIC (M. smegmatis ATCC 607): 0.125 µg/mL (≈ 0.232 µM); MIC (E. coli ATCC 25922 [4]; Escherichia coli, ATCC25922, Table 1, read-out: MIC): 1 µg/mL (≈ 1.85 µM) |
| [H]/N=C(/N)N[C@H]1[C@H](O)[C@@H](O)[C@H](O[C@@H]2O[C@@H](C)[C@](O)(C=O)[C@H]2O[C@@H]2O[C@@H](CO)[C@H](O)[C@@H](O)[C@@H]2NC)[C@@H](N/C(N)=N\[H])[C@@H]1O [Streptomycin, streptomycin, reference compound] | 8 (≈ 13.8 µM) |  |  |  |  | 4 (≈ 6.88 µM) | > 256 | 4 (≈ 6.88 µM) | 4 (≈ 6.88 µM) |  |  |
| kanamycin A [reference compound] |  |  |  |  |  |  |  |  |  | 1 to 4 | MIC ([1]; E. coli JW5503 EF-G P610T (fusA mutant)): 64 µg/mL; MIC (E. coli MAR17-1350): >128 µg/mL; MIC (K. pneumoniae MAR14-3395): >128 µg/mL; MIC (K. pneumoniae MAR18-1752): >128 µg/mL; MIC (K. pneumoniae APEX-5): >128 µg/mL; MIC (E. coli JW5503 kanS; E. coli JW5503 kanS (parent strain)): 4 µg/mL; MIC (E. coli JW5503 SmR; E. coli JW5503 SmR, ANT(3″) on plasmid): 8 µg/mL; MIC (E. coli JW5503 KanR; E. coli JW5503 KanR, APH(3′)-II on plasmid): >256 µg/mL; MIC (E. coli ATCC 25922 [4]; Table 2): 2 µg/mL; MIC (E. coli JW5503 ApmR; E. coli JW5503 ApmR, AAC(3)-IV on plasmid): 32 µg/mL |
| NC[C@H]1O[C@H](O[C@H]2[C@H](O)[C@@H](O[C@H]3O[C@H](CO)[C@@H](O)[C@H](N)[C@H]3O)[C@H](N)C[C@@H]2N)[C@H](N)C[C@@H]1O [Tobramycin, tobramycin, reference compound] | 16 (≈ 34.2 µM) | > 128 | > 128 | > 128 | 32 (≈ 68.4 µM) | 2 (≈ 4.28 µM) | 4 (≈ 8.56 µM) | 2 (≈ 4.28 µM) | > 256 | 0.25 to 1 | MIC (E. coli ATCC 25922 [4]; Escherichia coli, ATCC25922, Table 2, read-out: MIC): 0.5 µg/mL (≈ 1.07 µM) |
